“And” between values parts separate entries of the source, which are not always exact repeats. Identical values can stand only once.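 Where inhibition never reached the appropriate level, the endpoint shown equals the highest concentration tested. Otherwise, values were interpolated linearly from a five-concentration, 48-hour dose response in 96-well plates. The concentration for 50% growth inhibition is given as GI50. TGI marks complete inhibition of growth.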
System: MDA-MB-468 breast
Test: growth of human tumour cells (NCI), 48 h

SMILES	GI50	TGI
O=C(/C=C\c1cccc([N+](=O)[O-])c1)c1ccccc1	1650 nM	9510 nM
C[C@H]1O[C@@H](O[C@H]2[C@@H](O)C[C@H](O[C@H]3[C@@H](O)C[C@H](O[C@H]4CC[C@]5(C)C6C[C@@H](O)[C@]7(C)[C@@H](C8=CC(=O)OC8)CC[C@]7(O)C6CC[C@@H]5C4)O[C@@H]3C)O[C@@H]2C)C[C@H](O)[C@@H]1O (stereo partly specified)	148 nM	465 nM
COC(=O)c1c2c(c[n+]([O-])c1C)C(=O)C(NCc1ccccc1)=CC2=O	232 nM	672 nM
NC(=O)Cc1ccccc1Oc1nccc(-c2c(-c3ccc(F)cc3)ncn2C2CCNCC2)n1	8200 nM	> 25000 nM
CCS(=O)(=O)c1ccc(OC)c(Nc2ncc(-c3cccc(-c4ccccc4F)c3)o2)c1	4950 nM	> 25000 nM
N#Cc1cc(-c2ccccc2)[nH]c1-c1nccc2ccccc12	3330 nM	44900 nM
Cc1ccccc1NC(=O)N/C(N)=N/c1nc2ccccc2s1	233 nM	> 100000 nM
CCNC(=O)Nc1ccc(-c2nc3c(c(N4CCOC[C@@H]4C)n2)CCN(C2COC2)C3)cc1	135 nM and 125 nM	1720 nM and 1380 nM
O=C(c1ccc(F)c(F)c1Nc1ccc(I)cc1F)N1CC(O)([C@H]2CCCCN2)C1	4520 nM	10700 nM
COc1cccc(N2CCN(c3ncnc4c3[nH]c3ccc(F)cc34)C[C@@H]2C)c1	1590 nM	5310 nM
Cc1oncc1C(=O)Nc1ccc(C(F)(F)F)cc1	37100 nM	> 100000 nM
NC(=O)c1ncn(C2OC(CO)C(O)C2O)n1 (stereo unspecified)	69700 nM	> 100000 nM
C[C@H](Nc1ccc(C#N)n(C)c1=O)c1cc2cc(Cl)ccc2[nH]c1=O	21600 nM	84000 nM
CCCCCCCCCCCCCCCCCC(=O)[O][Sn]([CH2]CCC)([CH2]CCC)[CH2]CCC	83.5 nM	214 nM
Clc1ccc(N/N=C/c2ccccn2)nc1	260 nM	1510 nM
Nc1cccc(-c2nc3sccn3c2-c2ccnc(NCCCNS(=O)(=O)c3ccc(C(F)(F)F)cc3)n2)c1	2440 nM	33800 nM
O=C1OCC2=C1C(c1ccccc1)c1cc3c(cc1N2CCO)CCC3 (stereo unspecified)	55.9 nM	156 nM
O=C1OCC2=C1C(c1cccc([N+](=O)[O-])c1)c1cc3c(cc1N2CCO)CCC3 (stereo unspecified)	147 nM	8880 nM
C=C1C(=O)O[C@H]2[C@H]1CC/C(COC(=O)NCc1c[nH]c3ccc(OC)cc13)=C\CC[C@@]1(C)O[C@@H]21	1320 nM	4620 nM
Cn1c(=O)c(Sc2ccccc2F)cc2cnc(NC3CCOCC3)nc21	> 25000 nM	> 25000 nM
C=CC[Se]C(=O)c1ccccc1OC(C)=O	1780 nM	3750 nM
CC(C)[C@@H]1NC(=O)[C@]2(C)CSC(=N2)c2csc(n2)CNC(=O)C[C@@H](/C=C/CCS)OC1=O	206 nM	4430 nM
COc1cc(C2=Nc3c/c(=C\c4c(O)[nH]c5ccc(Cl)cc45)ccc3=N2)cc(OC)c1OC	1970 nM	4410 nM
CC1=C(CN(O)C(N)=O)C2=C(C)C3(CC3)[C@@](C)(O)C(=O)C2=C1	141 nM	347 nM
O=C(/C=C/c1ccccc1Cl)c1ccc(O)cc1	2770 nM	13000 nM
COc1c(Nc2ncc(Cl)c(N[C@@H]3[C@H]4C=CC(C4)[C@@H]3C(N)=O)n2)ccc2c1CC[C@@H](N1CCOCC1)CC2	2200 nM	8130 nM
COC(=O)C1=C(C(=O)Nc2cccnc2)C2OC1(C(Cc1ccccc1)Oc1ccccc1)C1OC21 (stereo unspecified)	1720 nM	4250 nM
CCN(CC)CCC(CNc1c2ccc([N+](=O)[O-])cc2nc2cc(OC)c(OC)cc12)c1ccccc1 (stereo unspecified)	324 nM and 229 nM	1630 nM and 1220 nM
